Tests used:
Experiment in all cases: relative viability (nuclei count vs DMSO), 5 days (fraction); higher = more cells survive
[1] = compound: C1CC1C(=O)NC2=NNC3=C2C=CC(=C3)C4=CC(=CC=C4)C(=O)NC5CC5 [XMD13-2] + COc1cc2c(Oc3ccc(NC(=O)C4(C(=O)Nc5ccc(F)cc5)CC4)cc3F)ccnc2cc1OCCCN1CCOCC1 [Foretinib] (partner 0.25 µM)
Procedure, shortened: (§1)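 Values are medians from duplicate plates. Each reflects relative viability, defined as the nuclei count of treated wells over that of vehicle wells. Lung cancer cell lines in 1536-well plates were pin-tool dosed one day after seeding with one drug alone or with a fixed anchor-drug dose plus five library-drug doses (not always all listed) in √10 steps, then fixed, stained and imaged at 4× after 5 days.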

[2] = compound: Cc1ccc(C(=O)Nc2cccc(C(F)(F)F)c2)cc1Nc1cncc(C(N)=O)c1 [ALW-II-49-7] + Cc1nc(Nc2ncc(C(=O)Nc3c(C)cccc3Cl)s2)cc(N2CCN(CCO)CC2)n1 [Dasatinib] (partner 0.075 µM)
Procedure, shortened: as §1

[3] = compound: Cc1ccc(C(=O)Nc2cccc(C(F)(F)F)c2)cc1Nc1cncc(C(N)=O)c1 [ALW-II-49-7] + O=C(CCCCCCC(=O)Nc1ccccc1)NO [Vorinostat] (partner 1 µM)
Procedure, shortened: as §1

[4] = compound: Cc1nc(Nc2ncc(C(=O)Nc3c(C)cccc3Cl)s2)cc(N2CCN(CCO)CC2)n1 [Dasatinib] + CC(C)C[C@H](NC(=O)[C@H](Cc1ccccc1)NC(=O)c1cnccn1)B(O)O [Bortezomib] (partner 0.002 µM)
Procedure, shortened: as §1

Cell Line	relative viability ([1]; first compound 0.05 µM)	relative viability ([1]; first compound 0.1581 µM)	relative viability ([1]; first compound 0.5 µM)	relative viability ([1]; first compound 1.581 µM)	relative viability ([1]; first compound 5 µM)	relative viability ([2]; first compound 0.08 µM)	relative viability ([2]; first compound 0.253 µM)	relative viability ([2]; first compound 0.8 µM)	relative viability ([2]; first compound 2.53 µM)	relative viability ([2]; first compound 8 µM)	relative viability ([3]; first compound 0.08 µM)	relative viability ([3]; first compound 0.253 µM)	relative viability ([3]; first compound 0.8 µM)	relative viability ([3]; first compound 2.53 µM)	relative viability ([3]; first compound 8 µM)	relative viability ([4]; first compound 0.005 µM)	relative viability ([4]; first compound 0.01581 µM)	relative viability ([4]; first compound 0.05 µM)	relative viability ([4]; first compound 0.1581 µM)	relative viability ([4]; first compound 0.5 µM)
NCI-H1975	1.06	0.939	0.96	0.978	0.982	0.298	0.451	0.323	0.349	0.34	0.713	0.686	0.643	0.66	0.542	0.393	0.279	0.348	0.212	0.22
NCI-H1993	0.838	0.689	0.775	0.785	0.507	0.492	0.533	0.423	0.545	0.666	0.843	0.72	0.837	0.828	0.796	0.743	0.851	1.34	0.847	0.497
NCI-H2009	1.3	1.2	1.2	1.17	1.3	0.284	0.29	0.289	0.264	0.252	0.749	0.838	0.731	0.695	0.657	1.13	0.97	0.884	0.354	0.173
NCI-H2023	0.82	0.825	0.791	0.798	0.864	0.547	0.547	0.603	0.573	0.437	0.683	0.688	0.434	0.64	0.625	0.788	0.818	0.791	0.705	0.669
NCI-H2085	0.971	0.943	0.963	0.857	0.923	0.236	0.168	0.239	0.215	0.213	0.787	0.899	0.718	0.817	0.702	1.09	0.958	0.86	0.397	0.262
NCI-H2087	1.4	1.27	1.22	1.08	0.727	0.924	0.784	0.825	0.978	0.753	0.687	0.597	0.662	0.508	0.38	0.751	0.769	0.869	0.815	0.665
NCI-H2126	1.16	1.18	1.16	1.29	1.1	0.534	0.638	0.586	0.52	0.457	0.8	0.877	0.778	0.71	0.707	1.08	1.07	1.16	0.988	0.587
NCI-H2228	0.912	1.13	0.839	0.875	1.02	0.57	0.391	0.509	0.538	0.455	0.534	0.414	0.513	0.674	0.49	0.645	0.988	0.888	0.691	0.47
NCI-H2347	0.986	0.992	1.17	0.848	1.1	0.264	0.302	0.301	0.34	0.356	0.519	0.5	0.653	0.49	0.559	0.732	0.857	0.929	0.324	0.368
NCI-H2405	1.09	1	1.09	1.06	1.04	0.207	0.216	0.219	0.208	0.173	1.08	1.14	0.968	0.905	0.789	0.879	0.956	0.616	0.475	0.306
NCI-H3122	0.966	0.949	1.05	0.977	0.939	0.83	0.81	0.737	0.891	0.834	1.06	0.907	0.854	1.15	0.987	0.988	0.94	1.02	1.05	0.815
PC-3 [JPC-3]	1.02	1.02	1.05	0.999	0.989	0.827	0.916	0.929	0.951	0.854	0.833	0.822	0.678	0.846	0.742	0.839	0.733	0.925	0.818	0.465
PC-14	1.04	0.947	0.981	0.995	0.976	0.202	0.3	0.242	0.227	0.192	0.474	0.544	0.668	0.562	0.588	0.822	0.96	0.969	0.585	0.35
RERF-LC-KJ	0.871	0.869	0.87	0.795	0.844	0.827	0.815	0.951	0.665	0.741	0.646	0.731	0.653	0.755	0.646	1.1	0.765	0.965	0.955	0.77
SK-LU-1	1.04	0.854	0.933	0.81	0.697	0.17	0.207	0.206	0.175	0.197	0.754	0.64	0.551	0.628	0.493	0.954	0.777	0.726	0.33	0.406
SW 1573	1.01	0.832	0.984	0.841	0.733	0.473	0.399	0.568	0.514	0.304	0.612	0.663	0.652	0.648	0.567	0.875	0.881	0.861	0.618	0.395

— the supplement of paper PMC10307832
